IC50 and inhibition data for ten compounds are collected here from patent publication US8309546B2, “Morpholinopurine derivatives” (Daiichi Sankyo Company, Limited, priority 2008, dated 2012).

The target in one assay is PI3Kα (Homo sapiens, UniProt P42336). As to the kind of experiment: PI3K kinase activity inhibition assay. As to conditions: Kinase-Glo Plus ATP detection, read-out: IC50 against PI3K. In kind it is biochemical. In outline:
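PI3Kα (50 nM solution) was reacted with 30 μM ATP and 45 μM PIP2 solutions, each in HEPES pH 7.4 with MgCl2 and DTT, for 2 h at room temperature. Remaining ATP was measured by Kinase-Glo Plus luminescence, and inhibition was derived from ATP consumed. IC50 was taken from curve fitting of the serial dilutions.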

Assay [1] concerns Akt (threonine 308) phosphorylation in AN3CA tumor. Nature of the assay: Akt phosphorylation inhibition assay in xenograft. In kind it is in vivo, female nude mouse. As to conditions: Mus musculus, AN3-CA, oral, 6 hr after dosing. A digest of the protocol:
(§1)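 AN3CA human endometrial cancer cells grown as subcutaneous xenografts in female nude mice; compound dosed orally at a set concentration, tumors excised after a set time. Tumor lysates at equal protein were western blotted for p-Akt(T308) and p-S6(S235/236). Inhibition (%) = 100−100×(treated/untreated phospho signal).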

Assay [2] concerns S6 (serine 235 and 236) phosphorylation in AN3CA tumor. Nature of the assay: S6 phosphorylation inhibition assay in xenograft. In kind it is in vivo, female nude mouse. The settings on record: Mus musculus, AN3-CA, oral, 6 hr after dosing. In outline:
as §1

Bounds are passed on as bounds.

Sequence of PI3Kα (P42336 whole entry, species assumed): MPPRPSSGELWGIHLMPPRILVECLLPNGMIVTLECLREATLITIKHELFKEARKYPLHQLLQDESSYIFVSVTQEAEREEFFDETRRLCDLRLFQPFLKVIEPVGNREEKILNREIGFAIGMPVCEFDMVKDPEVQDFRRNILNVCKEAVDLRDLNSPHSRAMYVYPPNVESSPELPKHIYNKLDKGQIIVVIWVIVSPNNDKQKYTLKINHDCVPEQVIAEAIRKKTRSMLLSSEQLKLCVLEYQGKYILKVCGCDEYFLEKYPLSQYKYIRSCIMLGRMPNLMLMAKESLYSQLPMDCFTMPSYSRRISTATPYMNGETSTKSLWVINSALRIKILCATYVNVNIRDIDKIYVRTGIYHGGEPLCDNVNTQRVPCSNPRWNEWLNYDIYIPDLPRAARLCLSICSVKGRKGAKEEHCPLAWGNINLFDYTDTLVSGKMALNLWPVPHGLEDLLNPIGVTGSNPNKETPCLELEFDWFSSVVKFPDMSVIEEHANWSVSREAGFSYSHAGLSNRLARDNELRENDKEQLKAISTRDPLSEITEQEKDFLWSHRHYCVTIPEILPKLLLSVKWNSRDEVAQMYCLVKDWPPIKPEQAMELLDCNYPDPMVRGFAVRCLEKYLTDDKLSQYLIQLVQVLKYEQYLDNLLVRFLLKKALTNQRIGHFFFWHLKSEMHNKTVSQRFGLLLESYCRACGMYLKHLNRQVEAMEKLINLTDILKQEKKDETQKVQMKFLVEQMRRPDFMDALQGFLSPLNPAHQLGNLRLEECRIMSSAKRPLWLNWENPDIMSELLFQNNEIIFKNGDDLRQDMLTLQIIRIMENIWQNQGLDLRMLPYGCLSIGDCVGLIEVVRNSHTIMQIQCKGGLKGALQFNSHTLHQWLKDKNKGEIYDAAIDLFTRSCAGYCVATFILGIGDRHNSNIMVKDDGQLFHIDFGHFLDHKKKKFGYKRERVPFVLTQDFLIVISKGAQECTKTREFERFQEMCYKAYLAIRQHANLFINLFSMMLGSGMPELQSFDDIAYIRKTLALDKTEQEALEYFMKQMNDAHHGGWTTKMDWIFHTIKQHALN
Sequence of PI3Kα (P27986 whole entry partner, species assumed): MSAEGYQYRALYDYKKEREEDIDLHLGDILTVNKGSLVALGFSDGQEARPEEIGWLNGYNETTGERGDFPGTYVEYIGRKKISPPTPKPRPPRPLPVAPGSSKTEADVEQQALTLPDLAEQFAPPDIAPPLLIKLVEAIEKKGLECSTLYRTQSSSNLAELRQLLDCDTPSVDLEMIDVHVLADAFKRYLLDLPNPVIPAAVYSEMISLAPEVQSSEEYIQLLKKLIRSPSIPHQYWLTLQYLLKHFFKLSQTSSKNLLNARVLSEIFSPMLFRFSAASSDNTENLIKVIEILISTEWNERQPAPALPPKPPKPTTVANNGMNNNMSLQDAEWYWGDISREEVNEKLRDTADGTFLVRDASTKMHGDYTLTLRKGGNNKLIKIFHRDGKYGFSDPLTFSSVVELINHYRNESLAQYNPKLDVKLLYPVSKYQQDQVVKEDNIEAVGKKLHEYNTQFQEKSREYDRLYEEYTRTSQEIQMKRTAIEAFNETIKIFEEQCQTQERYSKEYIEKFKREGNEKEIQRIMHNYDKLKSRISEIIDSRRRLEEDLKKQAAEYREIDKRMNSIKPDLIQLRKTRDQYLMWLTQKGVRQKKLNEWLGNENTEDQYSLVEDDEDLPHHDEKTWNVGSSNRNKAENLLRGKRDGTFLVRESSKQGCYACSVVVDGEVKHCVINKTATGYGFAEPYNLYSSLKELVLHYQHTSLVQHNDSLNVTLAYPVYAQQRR

On to `C[C@@H](O)C(=O)N1CCN(c2nc3c(N4CCOCC4)nc(-c4cnc(N)nc4)nc3n2CC2CC2)C[C@@H]1C` [Example 113, (2R)-1-{(2S)-4-[2-(2-Aminopyrimidin-5-yl)-9-(cyclopropylmethyl)-6-morpholin-4-yl-9H-purin-8-yl]-2-methylpiperazin-1-yl}-1-oxopropan-2-ol], for which the 50% inhibitory concentration (IC50) at PI3Kα was in the range of 10 to 20 nM. Further, the inhibition at 10 mg/kg in assay [1] was over 60%; in assay [2], over 90%.
As for `C[C@@H]1CN(c2nc3c(N4CCOCC4)nc(-c4cnc(N)nc4)nc3n2CC2CC2)CCN1C(=O)[C@@H](C)O` [Example 114, (2R)-1-{(2R)-4-[2-(2-Aminopyrimidin-5-yl)-9-(cyclopropylmethyl)-6-morpholin-4-yl-9H-purin-8-yl]-2-methylpiperazin-1-yl}-1-oxopropan-2-ol], at PI3Kα, the IC50 was under 10 nM. The inhibition at 10 mg/kg in assay [1] was over 60%; in assay [2], over 90%.
For `CC(=O)N1[C@H](C)CN(c2nc3c(N4CCOCC4)nc(-c4cnc(N)nc4)nc3n2CC(F)(F)F)C[C@@H]1C` [Example 115, 5-[8-(4-Acetyl-cis-3,5-dimethylpiperazin-1-yl)-6-morpholin-4-yl-9-(2,2,2-trifluoroethyl)-9H-purin-2-yl]pyrimidin-2-amine], in that order: under 10 nM, over 60% and over 90%.
In the case of `C[C@@H]1CN(c2nc3c(N4CCOCC4)nc(-c4cnc(N)nc4)nc3n2CC(F)(F)F)C[C@H](C)N1C=O` [Example 116, 4-[2-(2-Aminopyrimidin-5-yl)-6-morpholin-4-yl-9-(2,2,2-trifluoroethyl)-9H-purin-8-yl]-cis-2,6-dimethylpiperazine-1-carboaldehyde], the IC50 on PI3Kα is under 10 nM. Moreover, the results for the inhibition at 10 mg/kg in assay [1] and in assay [2] were over 60% and over 90%, respectively.
In the case of `CCC(=O)N1CCN(c2nc3c(N4CCOCC4)nc(-c4cnc(N)nc4)nc3n2CC(F)(F)F)CC1` [Example 117, 5-[6-Morpholin-4-yl-8-(4-propionylpiperazin-1-yl)-9-(2,2,2-trifluoroethyl)-9H-purin-2-yl]pyrimidin-2-amine], the IC50 on PI3Kα was under 10 nM. Also, the inhibition at 10 mg/kg in assay [1] fell in the range of 30 to 60%; in assay [2], 70 to 90%.
The corresponding values for `CC(=O)N1CCN(c2nc3c(N4CCOCC4)nc(-c4cnc(N)nc4)nc3n2CC(F)(F)F)CC12CC2` [Example 119, 5-[8-(4-Acetyl-4,7-diazaspiro[2.5]oct-7-yl)-6-morpholin-4-yl-9-(2,2,2-trifluoroethyl)-9H-purin-2-yl]pyrimidin-2-amine] are under 10 nM, 30 to 60% and over 90%.
For `CC(C)Cn1c(N2CCN(C(=O)CO)CC2)nc2c(N3CCOC[C@@H]3C)nc(-c3cnc(N)nc3)nc21` [Example 130, 2-(4-{2-(2-Aminopyrimidin-5-yl)-9-isobutyl-6-[(3S)-3-methylmorpholin-4-yl]-9H-purin-8-yl}piperazin-1-yl)-2-oxoethanol], in that order: 10 to 20 nM, 30 to 60% and over 90%.
As for `CC(C)Cn1c(N2CCN(C(=O)[C@H](C)O)CC2)nc2c(N3CCOC[C@@H]3C)nc(-c3cnc(N)nc3)nc21` [Example 131, (2S)-1-(4-{2-(2-Aminopyrimidin-5-yl)-9-isobutyl-6-[(3S)-3-methylmorpholin-4-yl]-9H-purin-8-yl}piperazin-1-yl)-1-oxopropan-2-ol], the IC50 on PI3Kα lay in the range of 10 to 20 nM. For the same compound, the inhibition at 10 mg/kg was over 60% in assay [1] and over 90% in assay [2].
The corresponding values for `CC(C)Cn1c(N2CCN(C=O)CC2)nc2c(N3CCOC[C@@H]3C)nc(-c3cnc(N)nc3)nc21` [Example 132, 4-{2-(2-Aminopyrimidin-5-yl)-9-isobutyl-6-[(3S)-3-methylmorpholin-4-yl]-9H-purin-8-yl}piperazine-1-carboaldehyde] are under 10 nM, over 60% and over 90%.
The corresponding values for `CNc1ncc(-c2nc(N3CCOCC3)c3nc(N4CCN(C(C)=O)CC4)n(CC(F)(F)F)c3n2)cn1` [Example 134, 5-[8-(4-Acetylpiperazin-1-yl)-6-morpholin-4-yl-9-(2,2,2-trifluoroethyl)-9H-purin-2-yl]-N-methylpyrimidin-2-amine] are under 10 nM, 30 to 60% and over 90%.

One may read the IC50 as the midpoint of a concentration-inhibition curve. One may read the inhibition as the drop in the measured response relative to a control, in per cent. A lower inhibition goes with a response near the control.
